Here are results for eight compounds from patent US20250195521A1 (Revolution Medicines, Inc., priority 2020, published 2025).

Each structure is given as a SMILES string.

Assay [1] concerns the target K-Ras G12C(GMP-PNP) binding to BRAF RBD (Homo sapiens (Human), UniProt P01116+P62937, G12C). In words: Disruption of BRAF RBD interaction with K-Ras (FRET / MOA assay), K-Ras G12C. It is filed as biochemical. Conditions: read-out: KRAS G12C FRET IC50. In a few lines: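 Compounds promote ternary complex of nucleotide-loaded Ras (here K-Ras G12C·GMP-PNP; other Ras mutants substituted) with cyclophilin A, disrupting BRAF RBD binding. 10-point 3-fold series from 30 μM final, 3 h at 25 °C, then anti-His Eu (10 nM) and anti-GST APC (50 nM) for 1.5 h. TR-FRET ratio decrease versus DMSO gave IC50.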

Assay [2] concerns the target KRAS G12S binding to BRAF RBD (Homo sapiens (Human), UniProt P01116+P62937, G12S). Nature of the assay: Ras-Raf disruption/FRET/MOA assay, KRAS G12S. Type of assay: biochemical. The text has this: (§1) Note—The following protocol describes a procedure for monitoring disruption of K-Ras G12C(GMP-PNP) binding to BRAF^RBD by a compound of the invention. This protocol may also be executed substituting other Ras proteins or nucleotides.
(§2) The purpose of this biochemical assay was to measure the ability of test compounds to facilitate ternary complex formation between a nucleotide-loaded K-Ras isoform and Cyclophilin A; the resulting ternary complex disrupts binding to a BRAF^RBD construct, inhibiting K-Ras signaling through a RAF effector. Data is reported as IC50 values.
(§3) Compound was present in plate wells as a 10-point 3-fold dilution series starting at a final concentration of 30 μM. After incubation at 25° C. for 3 hours, a mixture of Anti-His Eu—W1024 and anti-GST allophycocyanin was then added to assay sample wells at final concentrations of 10 nM and 50 nM, respectively, and the reaction incubated for an additional 1.5 hours. […] Compounds that facilitate disruption of a K-Ras: RAF complex were identified as those eliciting a decrease in the TR-FRET ratio relative to DMSO control wells.

Assay [3] deals with KRAS G12V binding to BRAF RBD (Homo sapiens (Human), UniProt P01116+P62937, G12V). In words: Ras-Raf disruption/FRET/MOA assay, KRAS G12V. It is filed as biochemical. The conditions noted are these: read-out: KRAS G12V FRET IC50.
Description: as §1, §2, §3

The test system of assay [4] is K-Ras G12C (NCI-H358 cells). Nature of the assay: Potency assay: pERK in NCI-H358 cells. Conditions: Homo sapiens; NCI-H358 cells, 4 hours; read-out: pERK EC50 (H358 KRAS G12C). Type of assay: cell-based, human. In a few lines: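 Cells plated the day before were exposed for 4 h at 37° C, 5% CO2 to a 10-point, 3-fold DMSO dilution series (10 mM top stock), in duplicate. Phospho-ERK was read by AlphaLISA SureFire Ultra or by In-Cell Western with DRAQ5 DNA stain, and IC50 came from a 4-parameter sigmoidal fit.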

In the next assay the test system is NCI-H358 (K-Ras G12C). In words: CellTiter-Glo cell viability assay, NCI-H358. Type of assay: cell-based, human. Conditions: Homo sapiens, NCI-H358, 120 h, 5-day treatment; read-out: H358 Cell Viability assay data (K-Ras G12C, IC50). In a few lines:
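Luminescent CellTiter-Glo read-out on day 5 after compound exposure; signal expressed as percent of mean DMSO control; four-parameter logistic fit gives the value.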

The target in assay [5] is KRAS G13D binding to BRAF RBD (Homo sapiens (Human), UniProt P01116+P62937, G13D). In words: Ras-Raf disruption/FRET/MOA assay, KRAS G13D. It is filed as biochemical. In a few lines: (§4)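 Cpd 10-pt 3-fold dilution, top 30 μM final; Ras/CypA/BRAF RBD mix 3 h, 25° C. Add anti-His Eu-W1024 10 nM + anti-GST APC 50 nM final, 1.5 h. Readout TR-FRET ratio decrease vs DMSO → IC50.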

Assay [6] deals with NRAS G12C binding to BRAF RBD (Homo sapiens (Human), UniProt P01111+P62937, G12C). In words: Ras-Raf disruption/FRET/MOA assay, NRAS G12C. Type of assay: biochemical. Summed up:
as §4

Assay [7] has as its system NCI-H358 cells (K-Ras G12C). In words: CellTiter-Glo cell viability, NCI-H358. Type of assay: cell-based, human. The conditions noted are these: Homo sapiens, NCI-H358, 120 h, K-Ras G12C, 5-day treatment; read-out: H358 Cell Viability IC50. In a few lines:
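Luminescence read on day 5 after ~30 min room-temperature equilibration; compounds added directly to plated cells. Values = (sample signal/avg DMSO)*100, four-parameter logistic fit.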

The target in assay [8] is KRAS WT binding to BRAF RBD (Homo sapiens (Human), UniProt P01116+P62937). Nature of the assay: Ras-Raf disruption/FRET/MOA assay, KRAS WT. It is filed as biochemical.
Description: (§5) Disruption of B-Raf Ras-binding Domain (BRAF^RBD) Interaction with K-Ras by Compounds of the Invention (also called a FRET assay or an MOA assay)
as §1, §2
as §3, with “In assay buffer containing 25 mM HEPES pH 7.3, 0.002% Tween20, 0.1% BSA, 100 mM NaCl and 5 mM MgCl2, tagless Cyclophilin A, His6-K-Ras-GMPPNP, and GST-BRAF^RBD were combined in a 384-well assay plate at final concentrations of 25 μM, 12.5 nM and 50 nM, respectively. Compound was” for “Compound was”

Assay [9] deals with KRAS Q61H binding to BRAF RBD (Homo sapiens (Human), UniProt P01116+P62937, Q61H). Nature of the assay: Ras-Raf disruption/FRET/MOA assay, KRAS Q61H. It is filed as biochemical.
Description: as §5, §1, §2
as §3, with “In assay buffer containing 25 mM HEPES pH 7.3, 0.002% Tween20, 0.1% BSA, 100 mM NaCl and 5 mM MgCl2, tagless Cyclophilin A, His6-K-Ras-GMPPNP, and GST-BRAF^RBD were combined in a 384-well assay plate at final concentrations of 25 μM, 12.5 nM and 50 nM, respectively. Compound was” for “Compound was”

For assay [10], the target named is NRAS Q61R binding to BRAF RBD (Homo sapiens (Human), UniProt P01111+P62937, Q61R). In words: Ras-Raf disruption/FRET/MOA assay, NRAS Q61R. Type of assay: biochemical.
Description: as §5, §1, §2
as §3, with “In assay buffer containing 25 mM HEPES pH 7.3, 0.002% Tween20, 0.1% BSA, 100 mM NaCl and 5 mM MgCl2, tagless Cyclophilin A, His6-K-Ras-GMPPNP, and GST-BRAF^RBD were combined in a 384-well assay plate at final concentrations of 25 μM, 12.5 nM and 50 nM, respectively. Compound was” for “Compound was”

The target of assay [11] is NRAS Q61K binding to BRAF RBD (Homo sapiens (Human), UniProt P01111+P62937, Q61K). Nature of the assay: Ras-Raf disruption/FRET/MOA assay, NRAS Q61K. Type of assay: biochemical.
Description: as §5, §1, §2
as §3, with “In assay buffer containing 25 mM HEPES pH 7.3, 0.002% Tween20, 0.1% BSA, 100 mM NaCl and 5 mM MgCl2, tagless Cyclophilin A, His6-K-Ras-GMPPNP, and GST-BRAF^RBD were combined in a 384-well assay plate at final concentrations of 25 μM, 12.5 nM and 50 nM, respectively. Compound was” for “Compound was”

The target of assay [12] is NRAS WT binding to BRAF RBD (Homo sapiens (Human), UniProt P01111+P62937). In words: Ras-Raf disruption/FRET/MOA assay, NRAS WT. It is filed as biochemical.
Description: as §5, §1, §2
as §3, with “In assay buffer containing 25 mM HEPES pH 7.3, 0.002% Tween20, 0.1% BSA, 100 mM NaCl and 5 mM MgCl2, tagless Cyclophilin A, His6-K-Ras-GMPPNP, and GST-BRAF^RBD were combined in a 384-well assay plate at final concentrations of 25 μM, 12.5 nM and 50 nM, respectively. Compound was” for “Compound was”

NRAS Q61R binding to BRAF RBD, sequence (P01111 whole entry Q61R): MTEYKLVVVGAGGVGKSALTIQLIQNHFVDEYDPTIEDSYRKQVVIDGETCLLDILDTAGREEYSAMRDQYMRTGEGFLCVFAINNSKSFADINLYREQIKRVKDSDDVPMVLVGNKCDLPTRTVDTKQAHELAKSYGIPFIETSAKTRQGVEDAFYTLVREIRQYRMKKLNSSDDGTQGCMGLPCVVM
NRAS Q61R binding to BRAF RBD, sequence (P62937 whole entry): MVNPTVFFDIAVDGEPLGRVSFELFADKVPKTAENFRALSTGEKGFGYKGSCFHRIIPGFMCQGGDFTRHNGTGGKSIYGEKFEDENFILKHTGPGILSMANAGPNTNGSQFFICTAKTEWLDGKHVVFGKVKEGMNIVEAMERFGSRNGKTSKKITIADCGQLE
NRAS Q61K binding to BRAF RBD, sequence (P01111 whole entry Q61K): as the sequence (P01111 whole entry Q61R) above, with R61K counted along it
NRAS Q61K binding to BRAF RBD, sequence (P62937 whole entry): as the sequence (P62937 whole entry) above
K-Ras G12C(GMP-PNP) binding to BRAF RBD, sequence (P01116 other isoform, or with tags, fused parts or gaps G12C): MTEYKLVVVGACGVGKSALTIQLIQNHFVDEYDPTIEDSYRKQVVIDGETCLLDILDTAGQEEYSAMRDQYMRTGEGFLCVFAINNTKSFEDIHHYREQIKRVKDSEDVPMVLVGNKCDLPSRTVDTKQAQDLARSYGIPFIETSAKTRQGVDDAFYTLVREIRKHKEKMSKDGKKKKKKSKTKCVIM
K-Ras G12C(GMP-PNP) binding to BRAF RBD, sequence (P62937 whole entry): as the sequence (P62937 whole entry) above
KRAS G12S binding to BRAF RBD, sequence (P01116 other isoform, or with tags, fused parts or gaps G12S): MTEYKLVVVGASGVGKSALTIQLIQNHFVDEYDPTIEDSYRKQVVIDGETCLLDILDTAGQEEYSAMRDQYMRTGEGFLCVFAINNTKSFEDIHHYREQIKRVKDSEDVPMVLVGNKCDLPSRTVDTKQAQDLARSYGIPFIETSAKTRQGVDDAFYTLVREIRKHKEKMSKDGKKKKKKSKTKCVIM
KRAS G12S binding to BRAF RBD, sequence (P62937 whole entry, canonical isoform): as the sequence (P62937 whole entry) above
KRAS G12V binding to BRAF RBD, sequence (P01116 other isoform, or with tags, fused parts or gaps G12V): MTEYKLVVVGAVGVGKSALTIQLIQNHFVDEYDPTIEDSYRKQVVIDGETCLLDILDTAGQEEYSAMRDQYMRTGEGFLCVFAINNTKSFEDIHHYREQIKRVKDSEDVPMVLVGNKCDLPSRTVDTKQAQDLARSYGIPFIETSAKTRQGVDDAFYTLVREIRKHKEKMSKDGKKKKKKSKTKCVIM
KRAS G12V binding to BRAF RBD, sequence (P62937 whole entry): as the sequence (P62937 whole entry) above
NRAS WT binding to BRAF RBD, sequence (P01111 whole entry): as the sequence (P01111 whole entry Q61R) above, with R61Q counted along it
NRAS WT binding to BRAF RBD, sequence (P62937 whole entry): as the sequence (P62937 whole entry) above
KRAS G13D binding to BRAF RBD, sequence (P01116 other isoform, or with tags, fused parts or gaps G13D): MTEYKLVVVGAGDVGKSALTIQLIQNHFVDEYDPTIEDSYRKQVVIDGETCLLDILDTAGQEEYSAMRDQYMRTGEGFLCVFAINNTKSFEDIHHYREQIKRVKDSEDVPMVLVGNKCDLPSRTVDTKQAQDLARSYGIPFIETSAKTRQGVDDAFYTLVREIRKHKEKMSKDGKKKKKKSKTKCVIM
KRAS G13D binding to BRAF RBD, sequence (P62937 whole entry): as the sequence (P62937 whole entry) above
KRAS Q61H binding to BRAF RBD, sequence (P01116 other isoform, or with tags, fused parts or gaps Q61H): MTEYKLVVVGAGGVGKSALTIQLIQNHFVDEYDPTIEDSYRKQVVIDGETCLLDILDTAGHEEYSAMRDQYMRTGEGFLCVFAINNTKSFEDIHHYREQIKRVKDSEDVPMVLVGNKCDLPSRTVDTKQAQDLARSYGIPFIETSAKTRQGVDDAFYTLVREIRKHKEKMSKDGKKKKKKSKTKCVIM
KRAS Q61H binding to BRAF RBD, sequence (P62937 whole entry): as the sequence (P62937 whole entry) above
NRAS G12C binding to BRAF RBD, sequence (P01111 whole entry G12C): as the sequence (P01111 whole entry Q61R) above, with G12C, R61Q counted along it
NRAS G12C binding to BRAF RBD, sequence (P62937 whole entry): as the sequence (P62937 whole entry) above
KRAS WT binding to BRAF RBD, sequence (P01116 other isoform, or with tags, fused parts or gaps): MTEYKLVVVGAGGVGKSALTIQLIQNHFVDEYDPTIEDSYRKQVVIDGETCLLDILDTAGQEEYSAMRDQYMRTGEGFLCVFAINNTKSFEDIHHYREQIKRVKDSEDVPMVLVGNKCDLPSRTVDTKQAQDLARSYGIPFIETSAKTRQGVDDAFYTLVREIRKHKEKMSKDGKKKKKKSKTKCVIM
KRAS WT binding to BRAF RBD, sequence (P62937 whole entry, the tested form may be a part): as the sequence (P62937 whole entry) above

`CCn1c(-c2cccnc2[C@H](C)OC)c2c3cc(ccc31)-c1cc(O)cc(c1)C[C@H](NC(=O)C(C1CC1)C1CC1)C(=O)N1CCC[C@H](N1)C(=O)OCC(C)(C)C2` [Compound A184]: the figures for the IC50 in assay [1], in assay [2] and in assay [3] were below 0.01 µM, 0.01 to 0.1 µM and 0.01 to 0.1 µM, respectively.
`CCn1c(-c2cccnc2[C@H](C)OC)c2c3cc(ccc31)-c1cc(O)cc(c1)C[C@H](NC(=O)[C@H](C(C)C)N(C)C(=O)[C@H]1CCC(C(=O)C#CCOC)C1)C(=O)N1CCC[C@H](N1)C(=O)OCC(C)(C)C2` (some centres unmarked) [Compound A266]: the EC50 in [4] was below 5 µM. Also, the IC50 was below 0.01 µM in the assay with NCI-H358 (K-Ras G12C); below 0.01 µM in [1]; 0.01 to 0.1 µM in assay [2]; 0.01 to 0.1 µM in assay [3]; 0.1 to 1 µM in assay [5]; below 0.01 µM in assay [6].
As to `CCn1c(-c2cccnc2[C@H](C)OC)c2c3cc(ccc31)-c1csc(n1)C[C@H](NC(=O)[C@H](C(C)C)N(C)C(=O)N1CCCC[C@@H](N(C)C)C1)C(=O)N1CCC[C@H](N1)C(=O)OCC(C)(C)C2` [Compound A492], the 50% inhibitory concentration (IC50) is 0.01 to 0.1 µM in [7]; below 0.01 µM with NCI-H358 (K-Ras G12C); 0.01 to 0.1 µM in assay [1]; 0.01 to 0.1 µM in assay [2]; 0.01 to 0.1 µM in [3]; 0.01 to 0.1 µM in assay [8]. In addition, the EC50 in assay [4] is below 5 µM.
As for `C=CC(=O)N(C)CCN1CCN(C(=O)N(C)[C@H](C(=O)N[C@H]2CN3CCC=C(C3)c3ccc4c(c3)c(c(-c3cccnc3[C@H](C)OC)n4CC)CC(C)(C)COC(=O)[C@@H]3CCCN(N3)C2=O)C(C)C)C[C@@H]1C` [Compound A570], in [4], the concentration for a half-maximal effect (EC50) is below 5 µM. For the same compound, the IC50 with NCI-H358 (K-Ras G12C) lay in the range of 0.1 to 1 µM; in assay [1] it was 0.1 to 1 µM; in assay [5] it was 1 to 10 µM; in assay [9], 0.1 to 1 µM; in [6] it was 0.1 to 1 µM; in assay [10], 0.1 to 1 µM. In addition, the IC50 in assay [11] and in assay [12] was 0.1 to 1 µM throughout.
For `C=CC(=O)C1CC[C@H](C(=O)N(C)[C@H](C(=O)N[C@H]2Cc3cccc(c3)-c3ccc4c(c3)c(c(-c3cccnc3[C@H](C)OC)n4CC)CC(C)(C)COC(=O)[C@@H]3CCCN(N3)C2=O)C(C)(C)F)C1` (some centres unmarked) [Compound A693], in [4], the EC50 is below 5 µM. The IC50 was in the range of 0.1 to 1 µM in the assay with NCI-H358 (K-Ras G12C); 0.1 to 1 µM in assay [1]; 1 to 10 µM in assay [5]; 1 to 10 µM in assay [9]; 0.1 to 1 µM in assay [6]; 1 to 10 µM in assay [10]. Also, the half-maximal inhibitory concentration (IC50) in assay [11] and in assay [12] was 1 to 10 µM in each case.
Consider `CCn1c(-c2cccnc2[C@H](C)OC)c2c3cc(ccc31)-c1csc(n1)C[C@H](NC(=O)[C@H](C(C)C)N(C)C(=O)C1CCN(C(=O)/C=C/CN(C)C)C3(CC3)C1)C(=O)N1CCC[C@H](N1)C(=O)OCC(C)(C)C2` (some centres unmarked) [Compound A701], for which the 50% effective concentration (EC50) in assay [4] is below 5 µM. For the same compound, the IC50 with NCI-H358 (K-Ras G12C) lay within 0.01 to 0.1 µM; in [1], 0.01 to 0.1 µM; in assay [5] it was 0.1 to 1 µM; in [9], 0.01 to 0.1 µM; in assay [6], 0.01 to 0.1 µM; in assay [10], 0.1 to 1 µM. Besides, the 50% inhibitory concentration (IC50) in assay [11] is 0.01 to 0.1 µM; in assay [12], 0.1 to 1 µM.
Take `CCn1c(-c2cccnc2[C@H](C)OC)c2c3cc(ccc31)-c1csc(n1)C[C@H](NC(=O)[C@H](C(C)C)N(C)C(=O)C1CCN(C(=O)/C=C/CN(C)C)C[C@@H]1C)C(=O)N1CCC[C@H](N1)C(=O)OCC(C)(C)C2` (some centres unmarked) [Compound A709]: the half-maximal effective concentration (EC50) in assay [4] was below 5 µM. Further, the half-maximal inhibitory concentration (IC50) in the assay with NCI-H358 (K-Ras G12C) is 0.01 to 0.1 µM; in [1], 0.01 to 0.1 µM; in assay [5], 0.1 to 1 µM; in [9], 0.01 to 0.1 µM; in [6], 0.01 to 0.1 µM; in assay [10], 0.1 to 1 µM. Also, the concentration for half-maximal inhibition (IC50) in assay [11] and in assay [12] was 0.01 to 0.1 µM each time.
With `CCn1c(-c2cccnc2[C@H](C)OC)c2c3cc(ccc31)N1CCO[C@@H](C[C@H](NC(=O)[C@H](C(C)C)N(C)C(=O)[C@@]3(F)CCN(C(=O)C#CC(C)(C)N4CCC4)C3)C(=O)N3CCC[C@H](N3)C(=O)OCC(C)(C)C2)C1` [Compound A726], the EC50 in assay [4] was below 5 µM. Moreover, the IC50 with NCI-H358 (K-Ras G12C) is below 0.01 µM; in assay [1] it was below 0.01 µM; in assay [5], 1 to 10 µM; in assay [9] it was 1 to 10 µM; in assay [6], 0.01 to 0.1 µM; in assay [10], above 10 µM. The concentration for half-maximal inhibition (IC50) in assay [11] was above 10 µM; in assay [12], 1 to 10 µM.
